The values below come from patent US20200079786A1, “ANALOGS OF […] AS SOLUBLE EPOXIDE HYDROLASE INHIBITORS” (UNIVERSITAT DE BARCELONA, priority 2015, published 2020).

Bounds are passed on as bounds.

Series [1] deals with Huh-7 cells. Kind of series: Amelioration of palmitate-induced ER stress: ATF3, BiP and CHOP mRNA by real-time PCR. Conditions: palmitate 0.5 mM + inhibitor 1 μM, 48 h. Format: cell-based. As for the experimental part:
Huh-7 cells were maintained in a humid atmosphere of 5% CO2 at 37° C. in high glucose (25 mM) Dulbecco's modified Eagle's medium supplemented with 10% heat-inactivated fetal bovine serum, 1% of penicillin/streptomycin (10.000 units/mL of penicillin and 10.000 μg/mL of streptomycin) and 1% of amphotericin B (250 μg/mL).
Huh-7 cells were serum-starved overnight prior treatment. […] For RNA extraction, cells were pre-treated with the inhibitors (final concentration 1 μM) for 1 hour before treatment with palmitate (final concentration 0.5 mM) and inhibitors (final concentration 1 μM). For each condition, at least 3 replicates were performed. Following 48 hours of incubation, RNA were extracted as described below.
Total RNA in hepatocytes was harvested by TRIsure (Bioline) according to the manufacturer's instructions. The extracted RNA was dissolved in RNase-free water and concentrations of total RNA were quantified using a NanoDrop 2000c spectrophotometer (Thermo Scientific). First-stranded cDNA was synthesized from 0.5 μg total RNA (Life Technologies). […] The PCR reaction contained 10 ng of reverse-transcribed RNA, 2× IQ™ SYBRGreen Supermix (BioRad, Barcelona, Spain) and 900 nmol/L concentration of each primer. Optical primer amplification efficiency for each primer set was assessed and a dissociation protocol was carried out to assure a single PCR product. PCR assays were performed on a MiniOpticon™ Real-Time PCR system (BioRad). Thermal cycling conditions were as follows: activation of Taq DNA polymerase at 95° C. for 10 min, followed by 40 cycles of amplification at 95° C. for 15 sec and 60° C. for 1 min. The relative levels of specific mRNA were estimated from the value of the threshold cycle (Ct) of the real-time PCR adjusted by that of a housekeeping gene (GAPDH) through the formula […] (ΔCt=Gene of interest Ct-GAPDH Ct). Cf.
For orientation: Quantitative PCR measures a nucleic acid by following its amplification.

Series [2] in a line: Parallel artificial membrane permeation assay for blood-brain barrier (PAMPA-BBB). Format: in vitro ADME, porcine. Conditions: PBS:EtOH (70:30). As for the experimental part:
The in vitro permeability (Pe) of the test compounds through lipid extract of porcine brain membrane was determined. Assayed compounds were tested using a mixture of PBS:EtOH (70:30). […] From this equation and taking into account the limits established by Di et al. for BBB permeation, the ranges of permeability were established, as follows.
(In general: PAMPA measures passive passage across an artificial lipid membrane.)

For series [3], the target named is T1, CYP1A2 (Homo sapiens, UniProt P05177).
T1 sequence (P05177 1-516): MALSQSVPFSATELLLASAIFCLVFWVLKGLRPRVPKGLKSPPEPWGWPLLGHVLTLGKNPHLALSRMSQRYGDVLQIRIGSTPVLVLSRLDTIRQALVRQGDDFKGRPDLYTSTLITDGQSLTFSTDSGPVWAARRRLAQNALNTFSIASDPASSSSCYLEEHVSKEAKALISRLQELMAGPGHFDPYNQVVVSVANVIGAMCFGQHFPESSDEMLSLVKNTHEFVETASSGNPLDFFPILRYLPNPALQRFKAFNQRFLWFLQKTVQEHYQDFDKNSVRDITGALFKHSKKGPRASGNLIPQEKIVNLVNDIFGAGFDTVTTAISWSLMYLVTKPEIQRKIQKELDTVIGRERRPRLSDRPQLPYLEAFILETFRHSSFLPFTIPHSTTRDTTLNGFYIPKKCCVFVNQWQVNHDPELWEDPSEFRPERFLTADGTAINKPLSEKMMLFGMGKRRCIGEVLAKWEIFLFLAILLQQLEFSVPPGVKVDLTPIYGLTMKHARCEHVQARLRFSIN
Description: Inhibition of human cytochrome P450 CYP1A2. It counts as in vitro ADME. Conditions: human cytochrome P450 enzyme. The text has this: The epoxidation of arachidonic acid (AA) by selected cytochrome P450 epoxygenases generates epoxyeicosatrienoic acids (EETs). These EETs show anti-inflammatory, antihypertensive, analgesic, angiogenic, and antiatherosclerotic effects in rodents and humans. sEH converts EETs to their corresponding dihydroxyeicosatrienoic acids (DHETs), whereby the biological effects of EETs are diminished, eliminated, or altered. Among the P450 enzymes, it is known that CYP2C19 and CYP1A2 have the highest formation rate of EETs from AA (cf. A. A. El-Sherbeni et al. “Repurposing resveratrol and fluconazole to modulate human cytrochrome P450-mediated arachidonic acid metabolites”, Molecular Pharmaceutics 2016, vol. 13, pp. 1278-1288). For this reason, a highly desirable aspect of any new sEH inhibitor is selectivity in front of CYP2C19 and CYP1A2.

The target of series [4] is T2, sEH in AR42j cells (Rattus norvegicus, UniProt P80299).
T2 sequence (P80299 1-554): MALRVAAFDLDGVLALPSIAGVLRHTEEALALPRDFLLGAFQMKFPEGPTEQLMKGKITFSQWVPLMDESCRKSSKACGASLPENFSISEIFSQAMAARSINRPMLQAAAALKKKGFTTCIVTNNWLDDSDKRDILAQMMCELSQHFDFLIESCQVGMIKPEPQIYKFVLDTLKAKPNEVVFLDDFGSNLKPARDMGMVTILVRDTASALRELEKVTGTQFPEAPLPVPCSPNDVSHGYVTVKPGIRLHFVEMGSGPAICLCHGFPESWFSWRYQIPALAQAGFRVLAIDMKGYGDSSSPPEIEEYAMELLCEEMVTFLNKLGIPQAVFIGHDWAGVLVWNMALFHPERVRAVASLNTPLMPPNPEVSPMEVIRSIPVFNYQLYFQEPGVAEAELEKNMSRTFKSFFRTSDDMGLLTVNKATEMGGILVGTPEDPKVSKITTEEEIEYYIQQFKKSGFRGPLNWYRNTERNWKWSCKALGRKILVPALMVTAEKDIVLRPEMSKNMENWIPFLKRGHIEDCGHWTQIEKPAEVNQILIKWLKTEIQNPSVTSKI
Kind of series: In vitro determination of sEH inhibition activity in AR42j cells (cell-based fluorescent assay). Conditions: AR-42J, read-out: % Inhn. ± SE (100 μM), sEH inhibition activity in cell culture.
Description: Solutions Preparation: • Assay buffer 1×: add 10 mL of the CBA-Buffer (10×) to 90 mL of distilled water. • Lysis Buffer: add 50 μL of the CBA Digitonin Solution to 10 mL of Buffer Assay 1×. • Substrate Solution: dilute 10 μL of CBA sEH Substrate with 10 mL of Assay Buffer 1×. • Standards: preparation of 7 concentrations of CBA 6-methoxy-2-naphtalaldehyde from 0 until 2 M with Assay Buffer 1×. • sEH Positive Control: Prepare another stock A (1 μg/ml: 1 μL CBA sEH Positive Control+1 mL Assay Buffer 1×). From the already prepared stock A, prepare 250 μL of sEH (10 ng/mL): 2.5 μL sEH stock A+250 μL Assay Buffer 1×). • sEH Inhibitor AUDA: dilute 10 μL CBA sEH Inhibitor with 500 ml Assay Buffer 1×. • Inhibitors dissolved in DMSO at appropriated concentrations.
Seed cells in a 96-well plate at a density of (2×10^4)-(5×10^4) cells/well in 100 μL of culture medium with or without compounds to be tested. Incubation of the cells in a CO2 incubator at 37° C. for 48 hours. Aspirate the culture medium and add 200 μL of Assay Buffer 1× to each well. Centrifuge the plate at 800 rmp for 5 minutes. Aspirate the supernatant and add 100 μL of Lysis Buffer to each well. Incubate with gentle shaking on an orbital shaker for 30 minutes at room temperature. Centrifuge the plate at 3000 rpm for 20 minutes at 4° C. Transfer 90 μL of the supernatants to the 96-Well Solid Plate (black). Add 10 μL Assay Buffer 1× or 10 μL of the AUDA solution to appropriate wells. For positive control wells, add 100 μL of the 10 ng/mL sEH Positive Control to two wells. Add 200 μL of 6-methoxy-2-Naphthaldehyde Standards to corresponding wells of the black plate. Add 100 μL of the sEH Substrate Solution to each well, except the standards. Incubate the plate at 37° C. for 30 minutes. […] The intensity of fluorescence was used to analyze and calculate inhibition percentages, shown in the Table as average of minimum three independent replicates.

Usually inhibition stands for the percentage by which the read-out fell short of the control. Consider `O=C(N[C@]12CC3C[C@@H](C[C@H](C3)O1)C2)N[C@H]1CC[C@H](Oc2ccc(C(=O)O)cc2)CC1` [Ig, trans-1-(2-oxaadamantan-1-yl)-3-[4-(4-carboxyphenoxy)cyclohexyl]urea], for which the “Level of CHOP mRNA” value in series [1] (control (CT) = 100.0, PAL alone 224.5) is given as 147.6 ± 15.9^(##). In addition, the “Level of BiP mRNA” value in series [1] (control (CT) = 100.0, PAL alone 242.9) was 174.9 ± 31.4^(#). For the same compound, the “Level of ATF3 mRNA” value in series [1] (control (CT) = 100.0, PAL alone 585.5) is on record as 286.7 ± 59.9^(###). The CNS prediction result in series [2] is on record as “CNS+ (Compounds of high BBB permeation (CNS+): Pe (10^6 cm s^−1)>5.181)”. The compound further displayed an inhibition at 1 µM in series [3] not above 6%. The inhibition at 100 µM in series [4] is 58.3 ± 3.2%.
